Results reported in patent US10448639B2, “Fungicidal pyrazoles” (FMC CORPORATION, priority 2009, dated 2019).

Columns and labels:
[1] = test system: Puccinia recondita f. sp. tritici; experiment: Test I: wheat leaf rust, preventive spray on wheat seedlings, visual disease rating; conditions: for Test I rating (% disease control) / Test I disease control rating: wheat leaf rust, 100 = 100% disease control; for Test I disease control rating: sprayed the day before inoculation, 0 = no disease control relative to controls
Botrytis cinerea = experiment: Test B: tomato Botrytis, preventive spray on tomato seedlings, visual disease rating; conditions: for Test B rating (% disease control) / Test B disease control rating: tomato Botrytis, 100 = 100% disease control; for Test B disease control rating: 0 = no disease control relative to controls
Septoria tritici = experiment: Test G: wheat leaf blotch, preventive spray on wheat seedlings, visual disease rating; conditions: for Test G rating (% disease control) / Test G disease control rating: wheat leaf blotch, 100 = 100% disease control; for Test G disease control rating: sprayed the day before inoculation, 0 = no disease control relative to controls
Alternaria solani = experiment: Test C: tomato early blight, preventive spray on tomato seedlings, visual disease rating; conditions: for Test C rating (% disease control) / Test C disease control rating: tomato early blight, 100 = 100% disease control; for Test C disease control rating: 0 = no disease control relative to controls
[2] = test system: Erysiphe graminis f sp. tritici; experiment: Test J: wheat powdery mildew, preventive spray on wheat seedlings, visual disease rating; conditions: for Test J rating (% disease control) / Test J disease control rating: wheat powdery mildew, 100 = 100% disease control; for Test J disease control rating: sprayed the day before inoculation, 0 = no disease control relative to controls
Septoria nodorum = experiment: Test F: Septoria glume blotch, preventive spray on wheat seedlings, visual disease rating; conditions: for Test F rating (% disease control) / Test F disease control rating: 100 = 100% disease control; for Test F disease control rating: 0 = no disease control relative to controls
[3] = test system: Puccinia recondita f. sp. tritici; experiment: Test H: wheat leaf rust, curative spray on inoculated wheat seedlings, visual disease rating; conditions: for Test H rating (% disease control) / Test H disease control rating: wheat leaf rust, 100 = 100% disease control; for Test H disease control rating: sprayed after inoculation, 0 = no disease control relative to controls
[4] = preventive, 0 = no control relative to controls
[5] = 0 = no control relative to controls
[6] = Septoria glume blotch, 0 = no control relative to controls
[7] = curative, 0 = no control relative to controls
[8] = preventive spray, 0 = no control
[9] = Septoria glume blotch on wheat, preventive spray, 0 = no control

COc1cc(F)c(Nc2c(-c3ccccc3C(F)(F)F)c(C)nn2C)c(F)c1 [compound 240]
Test I rating (% disease control) [1, 4]: 99% | Test B rating (% disease control) (Botrytis cinerea; [5]): 100% | Test G rating (% disease control) (Septoria tritici; [5]): 99% | Test C rating (% disease control) (Alternaria solani; [5]): 99% | Test J rating (% disease control) [2, 5]: 100% | Test F rating (% disease control) (Septoria nodorum; [6]): 0% | Test H rating (% disease control) [3, 7]: 0%

COc1cc(F)c(-c2c(C)nn(C)c2Nc2ccc(F)cc2C)c(F)c1 [compound 88]
Test I rating (% disease control) [1, 8]: 99% | Test B rating (% disease control) (Botrytis cinerea; [8]): 100% | Test G rating (% disease control) (Septoria tritici; [8]): 98% | Test C rating (% disease control) (Alternaria solani; [8]): 100% | Test J rating (% disease control) [2, 8]: 100% | Test F rating (% disease control) (Septoria nodorum; [9]): 99% | Test H rating (% disease control) ([3]; curative spray, 0 = no control): 95%

COc1cccc(Nc2c(-c3c(F)cccc3F)c(C)nn2C)c1 [compound 200]
Test I rating (% disease control) [1, 4]: 0% | Test B rating (% disease control) (Botrytis cinerea; [5]): 82% | Test G rating (% disease control) (Septoria tritici; [5]): 97% | Test C rating (% disease control) (Alternaria solani; [5]): 0% | Test J rating (% disease control) [2, 5]: 94% | Test F rating (% disease control) (Septoria nodorum; [6]): 0% | Test H rating (% disease control) [3, 7]: 0%

Cc1nn(C)c(Oc2cc(C#N)c(C#N)cc2Cl)c1-c1ccc(F)cc1Cl [compound 150]
Test I rating (% disease control) [1, 4]: 74% | Test B rating (% disease control) (Botrytis cinerea; [5]): 19% | Test G rating (% disease control) (Septoria tritici; [5]): 7% | Test C rating (% disease control) (Alternaria solani; [5]): 0% | Test J rating (% disease control) [2, 5]: 50% | Test F rating (% disease control) (Septoria nodorum; [6]): 60% | Test H rating (% disease control) [3, 7]: 0%

Cc1nn(C)c(Nc2ccc(Cl)cc2Cl)c1-c1c(Cl)cccc1Cl [compound 327]
Test I disease control rating [1]: 96% | Test B disease control rating (Botrytis cinerea): 99% | Test G disease control rating (Septoria tritici): 100% | Test C disease control rating (Alternaria solani): 0% | Test J disease control rating [2]: 99% | Test F disease control rating (Septoria nodorum; Septoria glume blotch on wheat): 0% | Test H disease control rating [3]: 0%

Cc1nn(C)c(Nc2cc(C#N)ccc2Cl)c1-c1ccc(F)cc1Cl [compound 235]
Test I rating (% disease control) [1, 4]: 0% | Test B rating (% disease control) (Botrytis cinerea; [5]): 84% | Test G rating (% disease control) (Septoria tritici; [5]): 17% | Test C rating (% disease control) (Alternaria solani; [5]): 0% | Test J rating (% disease control) [2, 5]: 79% | Test F rating (% disease control) (Septoria nodorum; [6]): 0% | Test H rating (% disease control) [3, 7]: 0%

COc1cc(F)c(-c2c(C)nn(C)c2Oc2ccc(Cl)c(C#N)c2)c(F)c1 [compound 218]
Test I rating (% disease control) [1, 4]: 92% | Test B rating (% disease control) (Botrytis cinerea; [5]): 94% | Test G rating (% disease control) (Septoria tritici; [5]): 99% | Test C rating (% disease control) (Alternaria solani; [5]): 0% | Test J rating (% disease control) [2, 5]: 87% | Test F rating (% disease control) (Septoria nodorum; [6]): 0% | Test H rating (% disease control) [3, 7]: 17%

Cc1nn(C)c(Nc2c(F)cc(C#N)cc2F)c1-c1c(F)cccc1Cl [compound 192]
Test I rating (% disease control) [1, 4]: 99% | Test B rating (% disease control) (Botrytis cinerea; [5]): 97% | Test G rating (% disease control) (Septoria tritici; [5]): 100% | Test C rating (% disease control) (Alternaria solani; [5]): 100% | Test J rating (% disease control) [2, 5]: 99% | Test F rating (% disease control) (Septoria nodorum; [6]): 73% | Test H rating (% disease control) [3, 7]: 0%

Cc1nn(C)c(Oc2ccc(C#N)cc2F)c1-c1c(F)cc(F)cc1F [compound 96]
Test I rating (% disease control) [1, 8]: 99% | Test B rating (% disease control) (Botrytis cinerea; [8]): 99% | Test G rating (% disease control) (Septoria tritici; [8]): 100% | Test C rating (% disease control) (Alternaria solani; [8]): 99% | Test J rating (% disease control) [2, 8]: 100% | Test F rating (% disease control) (Septoria nodorum; [9]): 99% | Test H rating (% disease control) ([3]; curative spray, 0 = no control): 9%

Cc1nn(C)c(Nc2c(Cl)cc(F)cc2Cl)c1-c1ccc(Cl)cc1Cl [compound 363]
Test I disease control rating [1]: 96% | Test B disease control rating (Botrytis cinerea): 65% | Test G disease control rating (Septoria tritici): 99% | Test C disease control rating (Alternaria solani): 0% | Test J disease control rating [2]: 43% | Test F disease control rating (Septoria nodorum; Septoria glume blotch on wheat): 0% | Test H disease control rating [3]: 0%

COc1cc(Oc2c(-c3c(F)cc(F)cc3F)c(C)nn2C)ccc1Br [compound 166]
Test I rating (% disease control) [1, 4]: 68% | Test B rating (% disease control) (Botrytis cinerea; [5]): 0% | Test G rating (% disease control) (Septoria tritici; [5]): 97% | Test C rating (% disease control) (Alternaria solani; [5]): 0% | Test J rating (% disease control) [2, 5]: 96% | Test F rating (% disease control) (Septoria nodorum; [6]): 0% | Test H rating (% disease control) [3, 7]: 0%

COc1cc(F)c(Nc2c(-c3c(F)cc(OC)cc3F)c(C)nn2C)c(F)c1 [compound 83]
Test I rating (% disease control) [1, 8]: 96% | Test B rating (% disease control) (Botrytis cinerea; [8]): 100% | Test G rating (% disease control) (Septoria tritici; [8]): 99% | Test C rating (% disease control) (Alternaria solani; [8]): 100% | Test J rating (% disease control) [2, 8]: 94% | Test F rating (% disease control) (Septoria nodorum; [9]): 89% | Test H rating (% disease control) ([3]; curative spray, 0 = no control): 99%

COc1ccc(Cl)c(-c2c(C)nn(C)c2Oc2c(F)cc(C#N)cc2F)c1 [compound 277]
Test I rating (% disease control) [1, 4]: 96% | Test B rating (% disease control) (Botrytis cinerea; [5]): 100% | Test G rating (% disease control) (Septoria tritici; [5]): 100% | Test C rating (% disease control) (Alternaria solani; [5]): 0% | Test J rating (% disease control) [2, 5]: 98% | Test F rating (% disease control) (Septoria nodorum; [6]): 0% | Test H rating (% disease control) [3, 7]: 0%

Cc1nn(C)c(Nc2ccc(F)cc2)c1-c1ccccc1C(F)(F)F [compound 237]
Test I rating (% disease control) [1, 4]: 68% | Test B rating (% disease control) (Botrytis cinerea; [5]): 99% | Test G rating (% disease control) (Septoria tritici; [5]): 97% | Test C rating (% disease control) (Alternaria solani; [5]): 0% | Test J rating (% disease control) [2, 5]: 97% | Test F rating (% disease control) (Septoria nodorum; [6]): 0% | Test H rating (% disease control) [3, 7]: 0%

Cc1nn(C)c(Nc2ncc(F)cc2F)c1-c1c(F)cccc1C(F)(F)F [compound 264]
Test I rating (% disease control) [1, 4]: 99% | Test B rating (% disease control) (Botrytis cinerea; [5]): 100% | Test G rating (% disease control) (Septoria tritici; [5]): 92% | Test C rating (% disease control) (Alternaria solani; [5]): 98% | Test J rating (% disease control) [2, 5]: 98% | Test F rating (% disease control) (Septoria nodorum; [6]): 0% | Test H rating (% disease control) [3, 7]: 0%

Cc1nn(C)c(Nc2ccc(F)cc2Cl)c1-c1ccc(F)cc1Cl [Compound 175, N,4-bis(2-chloro-4-fluorophenyl)-1,3-dimethyl-1H-pyrazol-5-amine]
pest or weed control at 200 µg/mL ([1]; 192 h, read-out: Test I rating (% disease control)): 99% | pest or weed control at 200 µg/mL (Botrytis cinerea; Botrytis cinerea, in Solanum lycopersicum, 120 h, read-out: Test B rating (% disease control)): 100% | pest or weed control at 200 µg/mL (Septoria tritici; Zymoseptoria tritici, in Triticum aestivum, 504 h, read-out: Test G rating (% disease control)): 96% | pest or weed control at 200 µg/mL (Alternaria solani; Alternaria solani, in Solanum lycopersicum, 168 h, read-out: Test C rating (% disease control)): 99% | pest or weed control at 200 µg/mL ([2]; Blumeria graminis, in Triticum aestivum, 192 h, read-out: Test J rating (% disease control)): 100% | pest or weed control at 200 µg/mL (Septoria nodorum; Parastagonospora nodorum, in Triticum aestivum, 192 h, read-out: Test F rating (% disease control)): 82% | pest or weed control at 200 µg/mL ([3]; 144 h, read-out: Test H rating (% disease control)): 93%

Cc1nn(C)c(Oc2ccc(C#N)c(C#N)c2)c1-c1c(F)cc(F)cc1F [compound 169]
Test I rating (% disease control) [1, 4]: 0% | Test B rating (% disease control) (Botrytis cinerea; [5]): 24% | Test G rating (% disease control) (Septoria tritici; [5]): 85% | Test C rating (% disease control) (Alternaria solani; [5]): 0% | Test J rating (% disease control) [2, 5]: 0% | Test F rating (% disease control) (Septoria nodorum; [6]): 0% | Test H rating (% disease control) [3, 7]: 0%
